Test results reported in ChEMBL document CHEMBL2407060, “1,1-Dioxo-5,6-dihydro-[4,1,2]oxathiazines, a novel class of 11ß-HSD1 inhibitors for the treatment of diabetes” (Bioorg Med Chem Lett, 2013).

How the values were obtained:
[1] = Drug metabolism in mouse liver microsomes after 20 mins; format: ADME, Microsome; conditions: read-out: Drug metabolism
[2] = Drug metabolism in human liver microsomes after 20 mins; format: ADME, Microsome; conditions: read-out: Drug metabolism
[3] = target: 11-beta-hydroxysteroid dehydrogenase 1 (Mus musculus, UniProt P50172); test: Inhibition of mouse 11beta-HSD1
[4] = Chemical stability of the compound under neutral condition; format: physicochemical
[5] = Metabolic stability in plasma (unknown origin) assessed as compound degradation; format: ADME, cell-free
[6] = Chemical stability of the compound under acidic condition; format: physicochemical
[7] = target: 11-beta-hydroxysteroid dehydrogenase 1 (Rattus norvegicus, UniProt P16232); test: Inhibition of rat 11beta-HSD1
[8] = target: 11-beta-hydroxysteroid dehydrogenase 1 (Homo sapiens, UniProt P28845); test: Inhibition of human 11beta-HSD1
11-beta-hydroxysteroid dehydrogenase 1 (Homo sapiens, UniProt P28845), sequence (P28845 whole entry): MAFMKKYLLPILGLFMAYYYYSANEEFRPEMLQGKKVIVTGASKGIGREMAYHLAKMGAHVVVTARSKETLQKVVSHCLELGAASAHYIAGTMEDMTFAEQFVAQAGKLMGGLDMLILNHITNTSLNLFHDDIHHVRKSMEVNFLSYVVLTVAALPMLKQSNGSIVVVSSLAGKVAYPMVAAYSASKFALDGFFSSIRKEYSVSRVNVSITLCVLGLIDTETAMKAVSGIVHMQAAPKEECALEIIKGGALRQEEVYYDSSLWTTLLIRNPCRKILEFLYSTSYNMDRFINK

11-beta-hydroxysteroid dehydrogenase 1 (Mus musculus, UniProt P50172), sequence (P50172 whole entry): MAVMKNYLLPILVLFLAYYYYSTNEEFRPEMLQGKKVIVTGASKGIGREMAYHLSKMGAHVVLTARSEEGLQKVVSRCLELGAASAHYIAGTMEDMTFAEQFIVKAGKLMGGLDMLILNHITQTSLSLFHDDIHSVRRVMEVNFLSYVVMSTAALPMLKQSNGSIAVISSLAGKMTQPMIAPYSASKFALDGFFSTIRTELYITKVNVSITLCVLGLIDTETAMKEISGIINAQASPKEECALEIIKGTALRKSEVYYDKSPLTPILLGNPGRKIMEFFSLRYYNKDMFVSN
11-beta-hydroxysteroid dehydrogenase 1 (Rattus norvegicus, UniProt P16232), sequence (P16232 whole entry): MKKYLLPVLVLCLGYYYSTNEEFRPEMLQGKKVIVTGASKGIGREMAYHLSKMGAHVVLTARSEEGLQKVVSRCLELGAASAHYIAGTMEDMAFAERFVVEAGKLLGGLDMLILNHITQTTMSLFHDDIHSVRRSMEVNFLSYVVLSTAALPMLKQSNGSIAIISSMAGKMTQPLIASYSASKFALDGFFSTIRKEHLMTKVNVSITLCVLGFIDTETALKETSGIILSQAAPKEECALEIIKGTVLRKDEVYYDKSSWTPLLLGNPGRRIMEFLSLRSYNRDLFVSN

Row | Compound | metabolised at 20 min [1] | metabolised at 20 min [2] | IC50 [3] | also measured
1 | O=S1(=O)N=C(N[C@@H](CCCO)c2ccccc2)O[C@H]2CCCC[C@H]21 | 78% | 89% | 294 nM | –
2 | CC1(C)OC(NC2CCCCC2)=NS(=O)(=O)C1(C)C | 9% | 5% | 865 nM | –
3 | CC1(C)OC(NC2CCCCC2)=NS(=O)(=O)C12CC2 | – | – | 1620 nM | –
4 | O=S1(=O)N=C(NC2CCCCC2)OC2(CCC2)C12CC2 | – | – | 813 nM | –
5 | CCC1OC(NC2CCCCC2)=NS(=O)(=O)C12CC2 (centres undefined) | – | – | 2510 nM | –
6 | C[C@H](NC1=NS(=O)(=O)C(C)(C)C(C)(C)O1)c1ccccc1 | – | – | 286 nM | –
7 | C[C@H](NC1=NS(=O)(=O)C(C)(C)C(C)(C)O1)c1ccccc1Cl | – | – | 29 nM | –
8 | CC1(C)OC(N[C@@H](CCO)c2ccccc2)=NS(=O)(=O)C1(C)C | 11% | 4% | 232 nM | –
9 | CC1(C)OC(N[C@@H](CCO)c2ccccc2Cl)=NS(=O)(=O)C1(C)C | 52% | 25% | 26 nM | –
10 | CC1(C)OC(N[C@@H](CCO)c2cccc(C#N)c2)=NS(=O)(=O)C1(C)C | – | – | 110 nM | –
11 | CC1(C)OC(N[C@@H](CCO)c2ccc(F)cc2)=NS(=O)(=O)C1(C)C | 9% | 2% | 199 nM | –
12 | CC(C)(O)C[C@H](NC1=NS(=O)(=O)C(C)(C)C(C)(C)O1)c1ccccc1Cl | – | – | 452 nM | –
13 | O=S1(=O)N=C(NC2CCCCC2)O[C@H]2CCCC[C@H]21 | – | – | – | Stability [4]: Stable; Stability [5]: Stable; Stability [6]: Stable; IC50 [7]: 246 nM
14 | O=S1(=O)NC(=NC2CCCCC2)O[C@@H]2CCCC[C@H]21 | – | – | – | IC50 [7]: 1140 nM
15 | O=S1(=O)NC(=NCc2ccccc2)O[C@H]2CCCC[C@H]21 | – | – | 786 nM | –
16 | O=S1(=O)NC(=NC23CCC(CC2)CC3)O[C@H]2CCCC[C@H]21 | 87% | 94% | 275 nM | –
17 | O=S1(=O)NC(=NC23CC4CC(CC(C4)C2)C3)O[C@H]2CCCC[C@H]21 | 98% | 91% | 40 nM | –
18 | O=S1(=O)NC(=NC23CC4CC(CC2C4)C3)O[C@H]2CCCC[C@H]21 (mixture of isomers) | 65% | 83% | 9 nM | –

Row | Compound | metabolised at 20 min [1] | metabolised at 20 min [2] | IC50 [3] | also measured
19 | CC(C)(NC1=NS(=O)(=O)[C@@H]2CCCC[C@@H]2O1)c1ccccc1 (mixture of isomers) | – | – | 444 nM | –
20 | O=S1(=O)NC(=N[C@@H](CO)c2ccccc2)O[C@H]2CCCC[C@H]21 (mixture of isomers) | – | – | 152 nM | –
21 | O=S1(=O)N=C(N[C@@H](CCO)c2ccccc2)O[C@H]2CCCC[C@H]21 (mixture of isomers) | 41% | 77% | 16 nM | –
22 | NC(=O)C[C@H](NC1=NS(=O)(=O)[C@@H]2CCCC[C@@H]2O1)c1ccccc1 (mixture of isomers) | 35% | 47% | – | –
23 | O=S1(=O)N=C(NC23CCCC2CCC3)O[C@H]2CCCC[C@H]21 (mixture of isomers) | – | – | 47 nM | –
24 | O=S1(=O)N=C(NC23CCC(F)(CC2)CC3)O[C@H]2CCCC[C@H]21 (mixture of isomers) | – | – | 454 nM | –
25 | O=S1(=O)N=C(NC23CCC(O)(CC2)CC3)O[C@H]2CCCC[C@H]21 (mixture of isomers) | 20% | 12% | 695 nM | –
26 | O=S1(=O)NC(=NC23CC4CC(CC(O)(C4)C2)C3)O[C@H]2CCCC[C@H]21 (mixture of isomers) | – | – | 400 nM | –
27 | O=S1(=O)NC(=NCC23CC4CC(CC(C4)C2)C3)O[C@H]2CCCC[C@H]21 (mixture of isomers) | – | – | 76 nM | –
28 | O=S1(=O)N=C(NC2CCCCC2)O[C@H]2CCCC[C@H]21 (racemic) | 19% | 18% | – | –
29 | O=S1(=O)N=C(NC2CCCCC2)O[C@H]2CCNC[C@H]21 (racemic) | – | – | – | IC50 [8]: > 2250 nM
30 | O=S1(=O)NC(=NC2CCCCC2)O[C@@H]2CCNC[C@H]21 (racemic) | – | – | – | IC50 [8]: > 2250 nM
31 | CN1CC[C@@H]2OC(=NC3CCCCC3)NS(=O)(=O)[C@@H]2C1 (racemic) | – | – | – | IC50 [8]: > 2250 nM
32 | O=S1(=O)N=C(NC2CCCCCC2)O[C@H]2CCCC[C@H]21 (racemic) | 54% | 45% | 87 nM | –
33 | O=S1(=O)N=C(NC2CCCCCCC2)O[C@H]2CCCC[C@H]21 (racemic) | 84% | 79% | 31 nM | –
34 | CC1(C)CCC(N=C2NS(=O)(=O)[C@@H]3CCCC[C@@H]3O2)CC1 (racemic) | 55% | 55% | 455 nM | –
35 | CC1(C)CC(NC2=NS(=O)(=O)[C@@H]3CCCC[C@@H]3O2)CC(C)(C)C1 (racemic) | 97% | 93% | 57 nM | –
36 | O=S1(=O)NC(=NCC2CCCCC2)O[C@H]2CCCC[C@H]21 (racemic) | – | – | 729 nM | –
